From patent US7019034B2, “Compositions and methods for reducing serum glucose and triglyceride levels in diabetic mammals” (Allergan, Inc., priority 2003, dated 2006)

Columns and labels:
[1] = biological target: T1, RARβ (Homo sapiens, UniProt P10826); assay: chimeric receptor transactivation assay, RARβ; format: cell-based; details: for EC50: NA = not active at all as an agonist, read-out: RAR Trans. EC50 β; for RAR β efficacy in percentage as compared to the standard compound: number in brackets
T1 sequence (P10826 183-417 limits assumed): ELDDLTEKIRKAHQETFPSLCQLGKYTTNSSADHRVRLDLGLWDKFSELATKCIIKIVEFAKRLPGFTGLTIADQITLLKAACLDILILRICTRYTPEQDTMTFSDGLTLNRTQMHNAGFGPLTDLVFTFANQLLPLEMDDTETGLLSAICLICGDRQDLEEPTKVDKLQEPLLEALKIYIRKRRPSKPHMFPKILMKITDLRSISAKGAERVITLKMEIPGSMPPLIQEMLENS
Source text: The specification of U.S. Pat. No. 5,455,265 is hereby expressly incorporated by reference.
Table 1 discloses the activity of certain exemplary compounds of the invention in the above-described receptor transactivation and binding assays. Particularly, the transactivation data pertaining to activation of the RAR receptors were obtained in the chimeric assay, and the transactivation data pertaining to the activation of RXR receptors were obtained in the holoreceptor assay.
Efficacy in a transactivation assay is expressed as a percentage of the maximum potency attained by the compound compared to a standard which, in this case, is the compound named (2E,4E,1′S,2′S)-3-methyl-5-[2′-methyl-2′-(5,5,8,8-tetramethyl-5,6,7,8-tetrahydro-naphthalen-2-yl)-cyclopropyl]-penta-2,4-dienoic acid.
(§1) In Table 1 NA stands for not active at all as an agonist. ND stands for not determined. The first row of numbers pertaining to each compound is the measured EC50 number. […] The third row of numbers pertaining to each compound is the binding Ki number.

[2] = biological target: T2, RXRβ (UniProt P28704); assay: holoreceptor transactivation assay, RXRβ; format: cell-based; details: for RXR β efficacy in percentage as compared to the standard compound / EC50: holoreceptor assay; for RXR β efficacy in percentage as compared to the standard compound: number in brackets; for EC50: read-out: RXR Trans. EC50 β; for efficacy in activating RXRβ compared with RXRα and RXRγ subtypes (in words): transactivation, Table 1
T2 sequence (P28704 1-520): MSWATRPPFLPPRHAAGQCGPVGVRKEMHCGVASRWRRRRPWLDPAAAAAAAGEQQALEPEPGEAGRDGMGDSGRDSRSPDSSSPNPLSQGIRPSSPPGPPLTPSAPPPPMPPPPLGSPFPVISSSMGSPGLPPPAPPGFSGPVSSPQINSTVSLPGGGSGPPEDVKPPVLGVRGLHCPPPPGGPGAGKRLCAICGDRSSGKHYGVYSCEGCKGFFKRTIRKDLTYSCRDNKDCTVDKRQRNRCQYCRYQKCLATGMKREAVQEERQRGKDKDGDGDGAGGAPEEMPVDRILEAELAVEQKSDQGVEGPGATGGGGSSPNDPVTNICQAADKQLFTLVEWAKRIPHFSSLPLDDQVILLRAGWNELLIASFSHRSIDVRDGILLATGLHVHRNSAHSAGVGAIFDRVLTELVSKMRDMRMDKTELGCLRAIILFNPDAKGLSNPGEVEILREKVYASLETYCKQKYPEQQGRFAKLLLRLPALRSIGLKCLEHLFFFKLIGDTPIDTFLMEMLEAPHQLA
Source text: The results obtained in this assay are expressed in EC50 numbers, as they are also in the chimeric receptor transactivation assay. The results of the ligand binding assay are expressed in Ki numbers.
Particularly, the transactivation data pertaining to activation of the RAR receptors were obtained in the chimeric assay, and the transactivation data pertaining to the activation of RXR receptors were obtained in the holoreceptor assay.
as §1

[3] = biological target: T3, RARβ (Homo sapiens, UniProt P10826); assay: ligand binding assay, RARβ; details: read-out: RAR Bind. Ki β
T3 sequence (P10826 1-455): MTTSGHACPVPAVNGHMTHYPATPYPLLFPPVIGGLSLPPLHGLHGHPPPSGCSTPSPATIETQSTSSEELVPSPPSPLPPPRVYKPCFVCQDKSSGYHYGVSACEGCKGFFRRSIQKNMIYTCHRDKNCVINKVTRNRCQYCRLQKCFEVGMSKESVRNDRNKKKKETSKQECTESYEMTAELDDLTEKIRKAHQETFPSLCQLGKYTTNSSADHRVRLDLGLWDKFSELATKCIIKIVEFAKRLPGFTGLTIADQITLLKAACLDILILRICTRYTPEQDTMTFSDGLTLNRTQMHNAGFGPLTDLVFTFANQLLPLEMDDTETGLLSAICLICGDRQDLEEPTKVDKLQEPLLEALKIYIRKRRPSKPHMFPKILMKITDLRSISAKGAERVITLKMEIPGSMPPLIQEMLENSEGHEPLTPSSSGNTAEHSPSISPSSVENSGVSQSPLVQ
Source text: (§2) A holoreceptor transactivation assay and a ligand binding assay which measure the antagonist/agonist like activity of the compounds of the invention, or their ability to bind to the several retinoid receptor subtypes, respectively, are described in published PCT Application No. WO WO93/11755 (particularly on pages 30–33 and 37–41) published on Jun. 24, 1993, the specification of which is also incorporated herein by reference. […] The results obtained in this assay are expressed in EC50 numbers, as they are also in the chimeric receptor transactivation assay. The results of the ligand binding assay are expressed in Ki numbers. (See Cheng et al. Biochemical Pharmacology Vol. 22 pp 3099–3108, expressly incorporated herein by reference.)
as §1

[4] = biological target: T4, RARγ (Homo sapiens, UniProt P13631); assay: ligand binding assay, RARγ; details: read-out: RAR Bind. Ki γ
T4 sequence (P13631 1-454): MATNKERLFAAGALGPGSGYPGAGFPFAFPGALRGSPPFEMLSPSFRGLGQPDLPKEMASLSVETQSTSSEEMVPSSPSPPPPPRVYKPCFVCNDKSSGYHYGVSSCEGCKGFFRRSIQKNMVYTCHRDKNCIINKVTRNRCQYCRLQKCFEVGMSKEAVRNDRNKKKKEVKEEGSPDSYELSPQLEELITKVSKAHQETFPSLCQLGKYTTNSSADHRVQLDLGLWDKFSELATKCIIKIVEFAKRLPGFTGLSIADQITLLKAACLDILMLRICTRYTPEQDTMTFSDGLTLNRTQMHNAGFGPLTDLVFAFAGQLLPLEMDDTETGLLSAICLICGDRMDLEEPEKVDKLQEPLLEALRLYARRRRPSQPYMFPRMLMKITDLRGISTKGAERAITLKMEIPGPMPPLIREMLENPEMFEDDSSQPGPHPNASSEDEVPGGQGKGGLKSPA
Source text: as §2, §1

EC50 [1]	RAR β efficacy in percentage as compared to the standard compound [1]	RXR β efficacy in percentage as compared to the standard compound [2]	EC50 [2]	Ki [3]	Ki [4]	SMILES	efficacy in activating RXRβ compared with RXRα and RXRγ subtypes (in words) [2]
250 nM	11%	46%	36 nM	540 nM	1510 nM	CCOc1cc2c(cc1\C(CC)=C(F)/C=C/C(C)=C/C(=O)O)C(C)(C)CCC2(C)C [Compound 2, (2E,4E,6E)-7-(3-Ethoxy-5,5,8,8-tetramethyl-5,6,7,8-tetrahydronaphthalen-2-yl)-6-fluoro-3-methylnona-2,4,6-trienoic acid]	significantly more effective in activating the RXRβ subtype
185 nM	16%	24%	62 nM	490 nM	720 nM	CCCOc1cc2c(cc1\C(C)=C(F)/C=C/C(C)=C/C(=O)O)C(C)(C)CCC2(C)C [Compound 4]	significantly more effective in activating the RXRβ subtype
